Results as given in the NIST ThermoML archive (doi:10.1021/je4009415).

Assay: xn = mol fraction of the nth substance listed
Settings: Liquid, Vibrating tube method

CCOC(=O)CC [ethyl propanoate] + CCCCCCCCC
Settings	mass density [kg/m3]
288.15 K, x1 = 0.0545	727.07
288.15 K, x1 = 0.1159	733.36
288.15 K, x1 = 0.1434	736.52
288.15 K, x1 = 0.2218	745.49
288.15 K, x1 = 0.2412	747.88
288.15 K, x1 = 0.3158	757.46
288.15 K, x1 = 0.3579	763.17
288.15 K, x1 = 0.4121	770.89
288.15 K, x1 = 0.462	778.51
288.15 K, x1 = 0.5039	785.25
288.15 K, x1 = 0.5537	793.58
288.15 K, x1 = 0.6035	802.47
288.15 K, x1 = 0.6328	807.91
288.15 K, x1 = 0.6935	819.81
288.15 K, x1 = 0.7463	830.79
288.15 K, x1 = 0.7907	840.69
288.15 K, x1 = 0.895	866.09
288.15 K, x1 = 0.9488	880.62
288.15 K, x1 = 1	895.58
298.15 K, x1 = 0.0538	718.94
298.15 K, x1 = 0.0883	722.45
298.15 K, x1 = 0.142	728.05
298.15 K, x1 = 0.2152	736.31
298.15 K, x1 = 0.3007	746.83
298.15 K, x1 = 0.3555	754.11
298.15 K, x1 = 0.4078	761.4
298.15 K, x1 = 0.4592	769.02
298.15 K, x1 = 0.4988	775.19
298.15 K, x1 = 0.5511	783.72
298.15 K, x1 = 0.5917	790.84
298.15 K, x1 = 0.6562	802.56
298.15 K, x1 = 0.6962	810.32
298.15 K, x1 = 0.741	819.48
298.15 K, x1 = 0.7883	829.57
298.15 K, x1 = 0.8559	845.47
298.15 K, x1 = 0.9034	857.27
298.15 K, x1 = 0.9521	870.29
298.15 K, x1 = 1	884.15
308.15 K, x1 = 0.0558	711.17
308.15 K, x1 = 0.089	714.43
308.15 K, x1 = 0.1555	721.34
308.15 K, x1 = 0.2171	728.16
308.15 K, x1 = 0.2586	733.03
308.15 K, x1 = 0.3081	739.12
308.15 K, x1 = 0.3829	748.94
308.15 K, x1 = 0.4013	751.5
308.15 K, x1 = 0.4533	759.02
308.15 K, x1 = 0.5068	767.11
308.15 K, x1 = 0.5509	774.2
308.15 K, x1 = 0.6035	783.03
308.15 K, x1 = 0.6525	791.81
308.15 K, x1 = 0.6998	800.82
308.15 K, x1 = 0.7473	810.39
308.15 K, x1 = 0.794	820.41
308.15 K, x1 = 0.8533	833.93
308.15 K, x1 = 0.9006	845.51
308.15 K, x1 = 0.9506	858.66
308.15 K, x1 = 1	872.62
318.15 K, x1 = 0.0516	702.64
318.15 K, x1 = 0.0909	706.6
318.15 K, x1 = 0.1617	713.7
318.15 K, x1 = 0.219	719.88
318.15 K, x1 = 0.2413	722.49
318.15 K, x1 = 0.2923	728.44
318.15 K, x1 = 0.3518	735.96
318.15 K, x1 = 0.4062	743.15
318.15 K, x1 = 0.4541	749.92
318.15 K, x1 = 0.5056	757.57
318.15 K, x1 = 0.556	765.57
318.15 K, x1 = 0.6001	772.83
318.15 K, x1 = 0.6514	781.78
318.15 K, x1 = 0.6939	789.72
318.15 K, x1 = 0.7552	801.69
318.15 K, x1 = 0.7988	810.87
318.15 K, x1 = 0.8559	823.94
318.15 K, x1 = 0.9062	835.91
318.15 K, x1 = 0.9524	847.95
318.15 K, x1 = 1	861.08
328.15 K, x1 = 0.0514	694.83
328.15 K, x1 = 0.0965	699.04
328.15 K, x1 = 0.1572	705.05
328.15 K, x1 = 0.2061	710.14
328.15 K, x1 = 0.2627	716.42
328.15 K, x1 = 0.3163	722.76
328.15 K, x1 = 0.3619	728.36
328.15 K, x1 = 0.4059	734.14
328.15 K, x1 = 0.4602	741.6
328.15 K, x1 = 0.5053	748.09
328.15 K, x1 = 0.5543	755.65
328.15 K, x1 = 0.6024	763.42
328.15 K, x1 = 0.6525	772.01
328.15 K, x1 = 0.6996	780.61
328.15 K, x1 = 0.7535	791.02
328.15 K, x1 = 0.8019	801
328.15 K, x1 = 0.8606	813.96
328.15 K, x1 = 0.8933	821.83
328.15 K, x1 = 0.9504	836
328.15 K, x1 = 1	849.41

CCC(=O)OC [methyl propanoate] + CCCCCCCCC
Settings	mass density [kg/m3]
288.15 K, x1 = 0.0638	727.45
288.15 K, x1 = 0.0962	730.67
288.15 K, x1 = 0.1483	736.11
288.15 K, x1 = 0.2104	743.23
288.15 K, x1 = 0.2364	746.3
288.15 K, x1 = 0.2979	754.2
288.15 K, x1 = 0.3526	761.75
288.15 K, x1 = 0.4001	768.71
288.15 K, x1 = 0.4322	773.78
288.15 K, x1 = 0.4985	784.9
288.15 K, x1 = 0.5504	794.42
288.15 K, x1 = 0.5954	803.25
288.15 K, x1 = 0.6449	813.66
288.15 K, x1 = 0.693	824.65
288.15 K, x1 = 0.7454	837.57
288.15 K, x1 = 0.7911	849.84
288.15 K, x1 = 0.8391	863.79
288.15 K, x1 = 0.8911	880.25
288.15 K, x1 = 0.9477	900.31
288.15 K, x1 = 1	921.21
298.15 K, x1 = 0.0519	718.48
298.15 K, x1 = 0.1041	723.58
298.15 K, x1 = 0.1448	727.66
298.15 K, x1 = 0.1889	732.52
298.15 K, x1 = 0.2498	739.65
298.15 K, x1 = 0.2949	745.26
298.15 K, x1 = 0.3489	752.48
298.15 K, x1 = 0.409	761.11
298.15 K, x1 = 0.4474	767.1
298.15 K, x1 = 0.5033	776.37
298.15 K, x1 = 0.6015	794.61
298.15 K, x1 = 0.6609	807.17
298.15 K, x1 = 0.7048	817.21
298.15 K, x1 = 0.751	828.64
298.15 K, x1 = 0.7937	839.79
298.15 K, x1 = 0.8444	854.36
298.15 K, x1 = 0.9002	871.96
298.15 K, x1 = 0.9516	890.02
298.15 K, x1 = 1	909.1
308.15 K, x1 = 0.0618	711.31
308.15 K, x1 = 0.1007	715.02
308.15 K, x1 = 0.165	721.49
308.15 K, x1 = 0.1941	724.61
308.15 K, x1 = 0.2601	732.22
308.15 K, x1 = 0.2902	735.94
308.15 K, x1 = 0.3585	744.82
308.15 K, x1 = 0.4102	752.25
308.15 K, x1 = 0.4567	759.29
308.15 K, x1 = 0.4962	765.69
308.15 K, x1 = 0.5559	776.15
308.15 K, x1 = 0.5986	784.17
308.15 K, x1 = 0.6514	794.91
308.15 K, x1 = 0.699	805.43
308.15 K, x1 = 0.7476	817.03
308.15 K, x1 = 0.796	829.48
308.15 K, x1 = 0.8477	844.14
308.15 K, x1 = 0.8947	858.8
308.15 K, x1 = 0.9504	877.94
308.15 K, x1 = 1	896.91
318.15 K, x1 = 0.0587	703.05
318.15 K, x1 = 0.1139	708.17
318.15 K, x1 = 0.141	710.78
318.15 K, x1 = 0.2148	718.51
318.15 K, x1 = 0.2624	723.9
318.15 K, x1 = 0.3145	730.23
318.15 K, x1 = 0.3621	736.39
318.15 K, x1 = 0.394	740.75
318.15 K, x1 = 0.4491	748.79
318.15 K, x1 = 0.4889	755.06
318.15 K, x1 = 0.5458	764.61
318.15 K, x1 = 0.6011	774.72
318.15 K, x1 = 0.6538	785.15
318.15 K, x1 = 0.6972	794.52
318.15 K, x1 = 0.7464	805.96
318.15 K, x1 = 0.7904	816.99
318.15 K, x1 = 0.8414	831.04
318.15 K, x1 = 0.8899	845.62
318.15 K, x1 = 0.9498	865.72
318.15 K, x1 = 1	884.71
328.15 K, x1 = 0.0562	694.8
328.15 K, x1 = 0.0989	698.61
328.15 K, x1 = 0.1503	703.45
328.15 K, x1 = 0.1813	706.43
328.15 K, x1 = 0.194	707.71
328.15 K, x1 = 0.2651	715.48
328.15 K, x1 = 0.3128	721.06
328.15 K, x1 = 0.3582	726.72
328.15 K, x1 = 0.4509	739.58
328.15 K, x1 = 0.5045	747.9
328.15 K, x1 = 0.5545	756.22
328.15 K, x1 = 0.6005	764.42
328.15 K, x1 = 0.6523	774.55
328.15 K, x1 = 0.7484	795.44
328.15 K, x1 = 0.7963	807.38
328.15 K, x1 = 0.8469	821.01
328.15 K, x1 = 0.9004	836.96
328.15 K, x1 = 0.9501	853.63
328.15 K, x1 = 1	872.22
